Experimental data: patent publication US12011444B2, “N-substituted indole derivatives as PGE2 receptor modulators” (Idorsia Pharmaceuticals Ltd, priority 2015, dated 2024)

What was measured:
[1] = target: EP4 (Homo sapiens (Human), UniProt P35408); assay: hEP4 cAMP assay (BT549 breast cancer cells, HTRF cAMP); format: cell-based; conditions: antagonistic activity; mean values where measured multiple times
Description: Plate is pre-incubated 45 minutes at room temperature. Subsequently, 2.5 microliters of PGE2 (final conc. 6 nM) are transferred into the assay plate. Plate is incubated 30 minutes at room temperature.

[2] = target: EP2 (Homo sapiens (Human), UniProt P43116);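 also: antagonism of PGE2-stimulated cAMP accumulation in SF295 human glioblastoma cells with endogenous EP2, cAMP read by HTRF, expressed relative to DMSO control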
Chain of EP2 (P43116 whole entry): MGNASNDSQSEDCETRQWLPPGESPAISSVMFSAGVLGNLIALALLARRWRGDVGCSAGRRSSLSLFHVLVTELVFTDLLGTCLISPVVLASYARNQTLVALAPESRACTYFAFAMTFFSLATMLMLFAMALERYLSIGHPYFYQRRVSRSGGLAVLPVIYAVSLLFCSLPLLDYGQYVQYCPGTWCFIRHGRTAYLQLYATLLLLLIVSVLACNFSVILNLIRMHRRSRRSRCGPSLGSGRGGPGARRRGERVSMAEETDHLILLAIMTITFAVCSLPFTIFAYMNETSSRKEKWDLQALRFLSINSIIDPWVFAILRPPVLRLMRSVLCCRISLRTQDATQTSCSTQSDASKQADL

Chain of EP4 (P35408 whole entry): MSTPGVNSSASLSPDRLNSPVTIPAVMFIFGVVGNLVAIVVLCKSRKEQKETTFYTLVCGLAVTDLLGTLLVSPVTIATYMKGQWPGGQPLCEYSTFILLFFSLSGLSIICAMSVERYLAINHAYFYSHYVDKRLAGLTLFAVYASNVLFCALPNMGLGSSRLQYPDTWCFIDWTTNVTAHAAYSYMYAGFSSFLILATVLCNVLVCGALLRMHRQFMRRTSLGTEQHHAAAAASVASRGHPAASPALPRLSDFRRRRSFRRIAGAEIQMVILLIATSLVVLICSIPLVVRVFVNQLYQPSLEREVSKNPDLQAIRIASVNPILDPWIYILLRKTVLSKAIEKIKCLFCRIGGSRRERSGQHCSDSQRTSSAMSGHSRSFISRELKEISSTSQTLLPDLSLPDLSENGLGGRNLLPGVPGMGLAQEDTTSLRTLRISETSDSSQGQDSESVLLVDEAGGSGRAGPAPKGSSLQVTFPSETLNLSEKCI

Row | SMILES | IC50 [1] | IC50 [2]
1 | CNS(=O)(=O)c1ccc(-c2cc(NCCn3c(C)cc4c(C)ccc(F)c43)ncn2)cc1C(F)(F)F [compound 563] | 0.601 µM | 0.111 µM
2 | COc1ccc(F)c2c1cc(C)n2CCNc1cc(-c2ccc(C3(C(=O)O)CC3)c(F)c2)ncn1 [compound 564] | 0.317 µM | 0.075 µM
3 | Cc1nc(-c2ccc(-c3cc(NCCn4c(C)cc5c(C)cc(F)cc54)ncn3)cc2)co1 [compound 565] | 0.434 µM | 0.077 µM
4 | COc1cccc2c1cc(C)n2CCNc1cc(-c2ccc(-c3csc(C)n3)cc2)ncn1 [compound 566] | 0.537 µM | 0.046 µM
5 | COc1ccc(F)c2c1cc(C)n2CCNc1cc(-c2ccc(S(N)(=O)=O)c(C(F)(F)F)c2)ncn1 [compound 567, 4-{6-[2-(7-Fluoro-4-methoxy-2-methyl-indol-1-yl)-ethylamino]-pyrimidin-4-yl}-2-trifluoromethyl-benzenesulfonamide] | 0.089 µM | 0.017 µM
6 | COc1cccc2c1cc(C)n2CCNc1cc(-c2ccc(C(=O)O)c(NCC(F)(F)F)c2)ncn1 [compound 568, 4-{6-[2-(4-Methoxy-2-methyl-indol-1-yl)-ethylamino]-pyrimidin-4-yl}-2-(2,2,2-trifluoro-ethylamino)-benzoic acid] | 0.118 µM | 0.001 µM
7 | Cc1cc(F)cc2c1cc(C)n2CCNc1cc(-c2ccc(-c3nnc(N)s3)cc2)ncn1 [compound 569] | 0.077 µM | 0.017 µM
8 | CCCc1cc(-c2cc(NCCn3c(C)cc4c(OC(F)(F)F)ccc(F)c43)ncn2)ccc1C(=O)O [compound 570] | 0.309 µM | 0.773 µM
9 | COc1cc(F)cc2c1cc(C)n2CCNc1cc(-c2ccc(-c3cnc(N)o3)cc2)ncn1 [compound 572] | 0.045 µM | 0.018 µM
10 | COc1ccc(F)c2c1cc(C)n2CCNc1cc(-c2ccc(-c3cnc(N)o3)cc2)ncn1 [compound 573] | 0.021 µM | 0.007 µM
11 | COc1ccc(F)c2c1cc(C)n2CCNc1cc(-c2ccc(-c3nnc(C)o3)cc2)ncn1 [compound 574] | 0.208 µM | 0.033 µM
12 | Cc1nc(-c2ccc(-c3cc(NCCn4c(C)cc5c(C)cc(F)c(F)c54)ncn3)cc2)c[nH]1 [compound 575] | 0.052 µM | 0.022 µM
13 | Cc1cc(F)c(F)c2c1cc(C)n2CCNc1cc(-c2ccc(-c3cncn3C)cc2)ncn1 [compound 576] | 0.355 µM | 0.399 µM
14 | Cc1cc(F)c(F)c2c1cc(C)n2CCNc1cc(-c2ccc(-c3cnc(N)o3)cc2)ncn1 [compound 577] | 0.118 µM | 0.114 µM
15 | COc1cc(F)cc2c1cc(C)n2CCNc1cc(-c2ccc(-c3csc(C(=O)O)n3)cc2)ncn1 [compound 578] | 0.052 µM | 0.009 µM
16 | COc1cc(F)cc2c1cc(C)n2CCNc1cc(-c2ccc(-c3nc(C(=O)O)cs3)cc2)ncn1 [compound 579] | 0.041 µM | 0.011 µM
17 | COc1ccc(F)c2c1cc(C)n2CCNc1cc(-c2ccc(-c3nc(C(=O)O)cs3)cc2)ncn1 [compound 580] | 0.032 µM | 0.004 µM
18 | COc1cc(F)cc2c1cc(C)n2CCNc1cc(-c2ccc(-c3c[nH]c(C)n3)cc2)ncn1 [compound 581] | 0.033 µM | 0.005 µM
19 | COc1cc(F)cc2c1cc(C)n2CCNc1cc(-c2ccc(-c3cncn3C)cc2)ncn1 [compound 582] | 0.161 µM | 0.05 µM
20 | COc1cc(F)cc2c1cc(C)n2CCNc1cc(-c2ccc(-c3cc(C)[nH]n3)cc2)ncn1 [compound 583] | 0.065 µM | 0.01 µM
21 | COc1ccc(F)c2c1cc(C)n2CCNc1cc(-c2ccc(-c3cncn3C)cc2)ncn1 [compound 584] | 0.148 µM | 0.039 µM
22 | COc1cc(F)cc2c1cc(C)n2CCNc1cc(-c2ccc(-c3coc(C)n3)cc2)ncn1 [compound 585] | 0.203 µM | 0.031 µM
23 | CCOc1cc(-c2cc(NCCn3c(C)cc4c(OC)ccc(F)c43)ncn2)ccc1CNCC(C)C [compound 586] | 0.865 µM | 0.729 µM
24 | COc1cc(F)cc2c1cc(C)n2CCNc1cc(-c2ccc(C(=O)O)c(NCC(F)(F)F)c2)ncn1 [compound 587, 4-{6-[2-(6-Fluoro-4-methoxy-2-methyl-indol-1-yl)-ethylamino]-pyrimidin-4-yl}-2-(2,2,2-trifluoro-ethylamino)-benzoic acid] | 0.106 µM | 0.002 µM
25 | COc1ccc(F)c2c1cc(C)n2CCNc1cc(-c2ccc(C(=O)O)c(NCC(F)(F)F)c2)ncn1 [compound 588, 4-{6-[2-(7-Fluoro-4-methoxy-2-methyl-indol-1-yl)-ethylamino]-pyrimidin-4-yl}-2-(2,2,2-trifluoro-ethylamino)-benzoic acid] | 0.092 µM | 0.002 µM
26 | CCOc1cc(-c2cc(NCCn3c(C)cc4c(OC)ccc(F)c43)ncn2)ccc1CNCCOC [compound 589] | 0.707 µM | 0.228 µM
27 | COc1ccc(F)c2c1cc(C)n2CCNc1cc(-c2ccc(-c3ccccn3)cc2)ncn1 [compound 590] | 0.178 µM | 0.018 µM
28 | CNS(=O)(=O)c1ccc(-c2cc(NCCn3c(C)cc4c(OC)ccc(F)c43)ncn2)cc1C(F)(F)F [compound 591, 4-{6-[2-(7-Fluoro-4-methoxy-2-methyl-indol-1-yl)-ethylamino]-pyrimidin-4-yl}-N-methyl-2-trifluoromethyl-benzenesulfonamide] | 0.294 µM | 0.033 µM

Row | SMILES | IC50 [1] | IC50 [2]
29 | CNc1nnc(-c2ccc(-c3cc(NCCn4c(C)cc5c(C)cc(F)cc54)ncn3)cc2)s1 [compound 592] | 0.039 µM | 0.013 µM
30 | COc1ccc(F)c2c1cc(C)n2CCNc1cc(-c2ccc(-c3n[nH]cc3C(=O)O)cc2)ncn1 [compound 593] | 0.435 µM | 0.157 µM
31 | COc1ccc(F)c2c1cc(C)n2CCNc1cc(-c2ccc(-c3cc(C(=O)O)[nH]n3)cc2)ncn1 [compound 594] | 0.042 µM | 0.19 µM
32 | COc1ccc(F)c2c1cc(C)n2CCNc1cc(-c2ccc(C(=O)O)c(OC3CCCC3)c2)ncn1 [compound 595, 2-Cyclopentyloxy-4-{6-[2-(7-fluoro-4-methoxy-2-methyl-indol-1-yl)-ethylamino]-pyrimidin-4-yl}-benzoic acid] | 0.073 µM | 0.01 µM
33 | COc1ccc(F)c2c1cc(C)n2CCNc1cc(-c2ccc(-c3onc(C)c3C(=O)O)cc2)ncn1 [compound 596] | 0.222 µM | 0.01 µM
34 | CCOc1cc(-c2cc(NCCn3c(C)cc4c(OC)ccc(F)c43)ncn2)ccc1CNC1CCC1 [compound 597] | 0.719 µM | 0.175 µM
35 | COc1cccc2c1cc(C)n2CCNc1cc(-c2ccc(C(=O)O)c(OC(F)F)c2)ncn1 [compound 598] | 0.336 µM | 0.002 µM
36 | CCOc1cc(-c2cc(NCCn3c(C)cc4c(OC)cccc43)ncn2)cc(Cl)c1C(=O)O [compound 599] | 0.196 µM | 0.013 µM
37 | Cc1cc(F)cc2c1cc(C)n2CCNc1cc(-c2ccc(C(=O)O)c(OC(F)F)c2)ncn1 [compound 600] | 0.319 µM | 0.014 µM
38 | Cc1ccc(F)c2c1cc(C)n2CCNc1cc(-c2ccc(C(=O)O)c(OC(F)F)c2)ncn1 [compound 601] | 0.122 µM | 0.012 µM
39 | CCS(=O)(=O)Nc1cc(-c2cc(NCCn3c(C)cc4c(C)ccc(F)c43)ncn2)ccc1C(=O)O [compound 602] | 0.805 µM | 0.163 µM
40 | COc1cc(F)cc2c1cc(C#N)n2CCNc1cc(-c2ccc(C(=O)O)c(CC(C)C)c2)ncn1 [compound 603] | 0.015 µM | 0.041 µM
41 | COc1cc(F)cc2c1cc(C)n2CCNc1cc(-c2ccc(C(=O)O)c(OC(F)(F)F)c2)ncn1 [compound 604] | 0.325 µM | 0.016 µM
42 | COc1ccc(Cl)c2c1cc(C)n2CCNc1cc(-c2ccc(C(=O)O)c(OC(F)(F)F)c2)ncn1 [compound 605] | 0.829 µM | 0.048 µM
43 | COc1ccc(F)c2c1cc(C)n2CCNc1cc(-c2ccc(C(=O)O)c(OC(F)(F)F)c2)ncn1 [compound 606] | 0.186 µM | 0.008 µM
44 | CCCOc1cc(-c2cc(NCCn3c(C)cc4c(OC)cc(F)cc43)ncn2)cc(Cl)c1C(=O)O [compound 607] | 0.111 µM | 0.025 µM
45 | CCCOc1cc(-c2cc(NCCn3c(C)cc4c(OC)cc(F)cc43)ncn2)cc(F)c1C(=O)O [compound 608] | 0.126 µM | 0.024 µM
46 | CCCOc1cc(-c2cc(NCCn3c(C)cc4c(OC)ccc(F)c43)ncn2)cc(Cl)c1C(=O)O [compound 609] | 0.042 µM | 0.01 µM
47 | CCCOc1cc(-c2cc(NCCn3c(C)cc4c(OC)ccc(F)c43)ncn2)cc(F)c1C(=O)O [compound 610] | 0.139 µM | 0.022 µM
48 | CCCCOc1cc(-c2cc(NCCn3c(C)cc4c(OC)cc(F)cc43)ncn2)ccc1C(=O)O [compound 611] | 0.056 µM | 0.004 µM
49 | COc1cc(F)cc2c1cc(C)n2CCNc1cc(-c2ccc(C(=O)O)c(OCC(C)C)c2)ncn1 [compound 612] | 0.079 µM | 0.008 µM
50 | CCCCOc1cc(-c2cc(NCCn3c(C)cc4c(OC)ccc(Cl)c43)ncn2)ccc1C(=O)O [compound 613] | 0.221 µM | 0.004 µM
51 | COc1ccc(Cl)c2c1cc(C)n2CCNc1cc(-c2ccc(C(=O)O)c(OCC(C)C)c2)ncn1 [compound 614] | 0.193 µM | 0.012 µM
52 | CCCCOc1cc(-c2cc(NCCn3c(C)cc4c(OC)ccc(F)c43)ncn2)ccc1C(=O)O [compound 615] | 0.039 µM | 0.002 µM
53 | COc1ccc(F)c2c1cc(C)n2CCNc1cc(-c2ccc(C(=O)O)c(OCC(C)C)c2)ncn1 [compound 616] | 0.085 µM | 0.005 µM
54 | CCOc1cc(-c2cc(NCCn3c(C)cc4c(OC)ccc(Cl)c43)ncn2)cc(CC)c1C(=O)O [compound 617] | 0.952 µM | 0.06 µM
55 | CCOc1cc(-c2cc(NCCn3c(C)cc4c(OC)ccc(F)c43)ncn2)cc(CC)c1C(=O)O [compound 618] | 0.395 µM | 0.024 µM
